Values joined by “and” are separate entries in the source; they are usually repeats but may differ in a detail not shown here. Equal entries are not always repeated. Positions of bridges follow the written chain, without caps; N, C: chain ends. Non-standard residues stand in square brackets, D forms with d. hArg = N=C(N)NCCCC[C@H](N)C(=O)O; S5 = C=CCCC[C@](C)(N)C(=O)O
Experiments:
PTH receptor type 2 = PTH receptor type 2 (UniProt P49190 25-550, limits assumed); experiment: cell-based or functional assay
[1] = test system: PTH (1-34) induced hypercalcemia; experiment: TPTx rat model of PTH (1-34) induced hypercalcemia; type: in vivo; details: for Ionized calcium, Avg. / Total calcium, Avg. / Ionized calcium, individual animals / Total calcium, individual animals: Group 2 Vehicle/PTH; for Ionized calcium, Avg. / Total calcium, Avg.: TPTx rats, PTH 1.25 μg/kg/h IV infusion
Experimental: PTH Antagonist in a TPTx Rat Model of PTH (1-34) Induced Hypercalcemia
Experiments were conducted assess the effect of a PTH antagonist SP#63 in a thyroparathyroidectomized (TPTx) rat model of PTH (1-34) induced hypercalcemia. Thyroid hormone was given as supportive therapy prior to start of PTH infusion.
SP#63 or the vehicle for SP#63 was administered as an intravenous (IV) bolus in PTH infused thyroparathyroidectomized (TPTx) Sprague-Dawley rats. SP#63 was administered at 0.925 mg/kg and 1.850 mg/kg, 1 to 3 min before the initiation of the IV infusion. PTH (administered at 1.25 μg/kg/h) or the vehicle for PTH were infused via a femoral catheter over a period of 6 hours at a rate of 1 mL/kg/h. Total and ionized calcium were measured from blood samples collected at 0, 2, 4 and 6 hours during the IV infusion.

human PTH1 receptor = biological target: T1, human PTH1 receptor (human, UniProt Q03431 27-593); experiment: cell-based or functional assay
T1 sequence (looked up): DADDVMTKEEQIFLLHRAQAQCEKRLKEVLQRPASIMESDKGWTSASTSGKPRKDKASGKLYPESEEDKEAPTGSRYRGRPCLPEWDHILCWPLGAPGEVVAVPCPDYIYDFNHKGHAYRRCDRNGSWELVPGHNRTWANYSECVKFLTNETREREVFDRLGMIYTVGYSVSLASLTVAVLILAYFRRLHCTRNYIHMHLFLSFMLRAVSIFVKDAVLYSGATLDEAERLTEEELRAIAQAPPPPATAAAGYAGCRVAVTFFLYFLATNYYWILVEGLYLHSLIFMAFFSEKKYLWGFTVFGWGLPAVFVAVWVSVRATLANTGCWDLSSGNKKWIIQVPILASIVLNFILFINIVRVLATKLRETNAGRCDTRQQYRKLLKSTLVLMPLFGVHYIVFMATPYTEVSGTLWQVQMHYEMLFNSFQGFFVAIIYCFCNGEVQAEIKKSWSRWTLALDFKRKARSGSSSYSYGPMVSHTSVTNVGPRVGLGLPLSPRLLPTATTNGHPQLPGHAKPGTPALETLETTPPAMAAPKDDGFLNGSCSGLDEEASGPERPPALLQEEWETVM

Sequence of PTH receptor type 2 (P49190 25-550 limits assumed): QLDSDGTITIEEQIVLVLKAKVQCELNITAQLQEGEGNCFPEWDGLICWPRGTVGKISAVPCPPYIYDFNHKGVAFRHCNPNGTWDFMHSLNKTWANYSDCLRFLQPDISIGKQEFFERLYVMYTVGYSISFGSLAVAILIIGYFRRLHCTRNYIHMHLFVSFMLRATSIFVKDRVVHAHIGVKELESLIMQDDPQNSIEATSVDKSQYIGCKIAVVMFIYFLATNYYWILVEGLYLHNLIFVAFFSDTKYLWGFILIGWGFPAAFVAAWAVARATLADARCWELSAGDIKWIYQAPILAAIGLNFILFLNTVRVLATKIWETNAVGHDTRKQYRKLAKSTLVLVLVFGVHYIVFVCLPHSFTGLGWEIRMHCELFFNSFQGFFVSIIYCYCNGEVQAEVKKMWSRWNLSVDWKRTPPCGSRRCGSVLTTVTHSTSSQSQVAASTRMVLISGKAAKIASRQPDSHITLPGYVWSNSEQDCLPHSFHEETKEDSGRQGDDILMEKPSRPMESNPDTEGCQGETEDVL

Molecule: BIM-44002 (peptide)
- calcium flux IC50 (PTH receptor type 2): > 10 µM

Molecule: PTH (1-34)
- Ionized calcium, Avg. ([1]; 2 h): 4.13 mg/dL
- Total calcium, Avg. ([1]; 2 h): 8.28 mg/dL
- Ionized calcium, Avg. ([1]; 4 h): 4.62 mg/dL
- Total calcium, Avg. ([1]; 4 h): 9.14 mg/dL
- Ionized calcium, Avg. ([1]; 6 h): 4.99 mg/dL
- Total calcium, Avg. ([1]; 6 h): 9.92 mg/dL
- Ionized calcium, Avg. ([1]; time 0): 3.36 mg/dL
- Total calcium, Avg. ([1]; time 0): 7.22 mg/dL
- Ionized calcium, individual animals ([1]; animals 2001-2005, 2 h): 4.08 mg/dL and 3.27 mg/dL and 4.85 mg/dL and 4.68 mg/dL and 3.75 mg/dL
- Total calcium, individual animals ([1]; animals 2001-2005, 2 h): 8.2 mg/dL and 6.6 mg/dL and 9.8 mg/dL and 9.3 mg/dL and 7.5 mg/dL
- Ionized calcium, individual animals ([1]; animals 2001-2005, 4 h): 4.58 mg/dL and 3.88 mg/dL and 5.29 mg/dL and 5.02 mg/dL and 4.34 mg/dL
- Total calcium, individual animals ([1]; animals 2001-2005, 4 h): 9.1 mg/dL and 7.6 mg/dL and 10.5 mg/dL and 9.8 mg/dL and 8.7 mg/dL
- Ionized calcium, individual animals ([1]; animals 2001-2005, 6 h): 5.06 mg/dL and 4.15 mg/dL and 5.71 mg/dL and 5.23 mg/dL and 4.79 mg/dL
- Total calcium, individual animals ([1]; animals 2001-2005, 6 h): 10.1 mg/dL (2×) and 8.3 mg/dL and 11.4 mg/dL and 9.7 mg/dL
- Ionized calcium, individual animals ([1]; animals 2001-2005, time 0): 3.21 mg/dL and 3.07 mg/dL and 4.01 mg/dL and 3.16 mg/dL
- Total calcium, individual animals ([1]; animals 2001-2005, time 0): 6.7 mg/dL and 6.4 mg/dL and 8.4 mg/dL and 8.3 mg/dL and 6.3 mg/dL
- ionized calcium at 6 h ([1]; PTH infusion 1.25 μg/kg/h with vehicle for SP#63, 3.36 mg/dL at 0 h): 4.99 mg/dL
- total calcium at 6 h ([1]; PTH infusion 1.25 μg/kg/h with vehicle for SP#63, 7.22 mg/dL at 0 h): 9.92 mg/dL

Molecule: TIP-39 (from UniProt Q96A98 62-100) (ligand)
- calcium flux, EC80 (PTH receptor type 2): 4.1 nM

Molecule: H-LLHQRAKWIQD[S5]RRR[S5]WLRKKLQDVHNF-NH2 (staple 12-16) [SP# 247]
- IC50, SaOS-2 cAMP with PTH[1-84] or PTHrP[1-34] as ligand (human PTH1 receptor): < 10 nM

Molecule: H-LLHQRA[S5]WIQ[S5]LRRR[S5]WLR[S5]KLQDVHNF-NH2 (staple 7-11, 16-20) [SP# 246]
- IC50, SaOS-2 cAMP with PTH[1-84] or PTHrP[1-34] as ligand (human PTH1 receptor): < 10 nM

Molecule: H-LLHQRA[S5]WIQ[S5]LRRREW[S5]RKK[S5]QDVHNF-NH2 (staple 7-11, 18-22) [SP# 245]
- IC50, SaOS-2 cAMP with PTH[1-84] or PTHrP[1-34] as ligand (human PTH1 receptor): < 10 nM

Molecule: H-LL[S5]QRA[S5]WIQDLRRRFW[S5]HHL[S5]AEIHTA-NH2 (staple 18-22, 3-7) [SP# 228]
- IC50, SaOS-2 cAMP with PTH[1-84] or PTHrP[1-34] as ligand (human PTH1 receptor): < 10 nM

Molecule: H-LLH[S5]RAK[S5]IQDLRRRFW[S5]HHL[S5]AEIHTA-NH2 (staple 18-22, 4-8) [SP# 226]
- IC50, SaOS-2 cAMP with PTH[1-84] or PTHrP[1-34] as ligand (human PTH1 receptor): < 10 nM

Molecule: H-LLHQ[hArg]AK[S5]IQD[S5]RRR[S5]WLH[S5]LIAEIHTAEY-NH2 (staple 8-12, 16-20) [SP# 67]
- calcium flux IC50 (PTH receptor type 2): < 10 µM

Molecule: H-LL[S5]QRA[S5]WIQD[S5]RRR[S5]WLHHLIAEIHTA-NH2 (staple 12-16, 3-7) [SP# 232]
- IC50, SaOS-2 cAMP with PTH[1-84] or PTHrP[1-34] as ligand (human PTH1 receptor): < 10 nM
